Data on one compound can be found in US20260242390A1, “TOTAL SYNTHESES OF PORTIMINE A AND ANALOGUES THEREOF AS SMALL MOLECULE MODULATORS OF NMD3” (priority 2023, published 2026).

The term IC50 denotes the concentration needed to halve the response being measured.

SMILES strings stand for the structures.

For one assay, the system named is NMD3 mRNA. Kind of assay: NMD3 mRNA level in cells. It is filed as cell-based, human. The procedure: FIG. 6. Portimine A inhibits S phase entry in Jurkat cells. Portimine A downregulates NMD3 at protein level but upregulates in mRNA level in cells, as well as some essential apoptosis proteins. […] Protein degradation of p53, Mcl1, Bid, Bim, Noxa can be rescued by MG132 or Epoxomicin. (B) NMD3 mRNA increased after PA treatment, but not ePA control compound. Jurkat cells were treated with indicated compounds for 24 hr; Cells were then fixed and perform Propidium Iodide staining.
• 1) Portimine A and its functional analogs show stereo-selective acute toxicity in cancer cells (FIG. 1). […] (B) Structure of portimine related analogs: phenyl-portimine A (Ph-PA, 36) and epi-portimine A (ePA, 38). Structure of fully functionalized portimine A-based epimeric probe pair: portimine A-diazirine-alkyne (PA-DA, 35-2) and epi-portimine A-diazirine-alkyne (ePA-DA, 35-1). (C) Cell viability analysis of portimine A and analogs. Jurkat cells were treated with increasing concentrations of portimine A and analogs for 24 hours. All presented data as mean of biological replicated experiments (n=3). […] Jurkat cells were treated with portimine A or analogs for 12 hours at 10 nM. […] Cell lysates were fractionated by sucrose gradient (5-50%) and each fraction were analyzed by western blot. eIF6 levels increase in 60S subunit fraction and decrease in ribosome-free fractions after PA treatment. […]

Another assay relates to SUM159. Put plainly: Broad cell line profiling, SUM159. It is filed as cell-based. The following applies: Homo sapiens; SUM159, Breast Adenocarcinoma; read-out: PA IC50. An excerpt:
• A panel of human and mouse cancer cell types used to assess the breadth of PA activity, including multiple therapy resistant metastatic mesenchymal tumor cell lines and primary glioblastoma patient-derived metastatic stem/tumor initiating cell populations.

`C=CC1=C[C@@H]2[C@@H]3O[C@]4(CC[C@H](O4)C(C)C[C@@H](O)C3=O)CC(O)C3=NCC[C@@]32CC1` (some centres unmarked) [PA, portimine A]: the “NMD3 mRNA” value in the assay with NMD3 mRNA is given as “increased”. Also, the IC50 in the assay on SUM159 was 1.9 nM.
